Data published in patent publication US11319298B2 (Merck Sharp & Dohme Corp., priority 2016, dated 2022).

Each compound was assayed against T1, human M4 muscarinic acetylcholine receptor (Homo sapiens, UniProt P08173) (assay: human FLIPR-based M4 PAM assay, CHO-K1 cells stably transfected with human M4 receptor and chimeric G-protein Gαqi5). Settings: inflection point (IP) of dose response curve; acetylcholine added at 20% of maximum response; CHO-K1 human M4/Gαqi5, FLIPR Tetra.
T1 construct: expressed in transfected cells; host or cells: CHO-K1
T1 sequence (P08173 1-479): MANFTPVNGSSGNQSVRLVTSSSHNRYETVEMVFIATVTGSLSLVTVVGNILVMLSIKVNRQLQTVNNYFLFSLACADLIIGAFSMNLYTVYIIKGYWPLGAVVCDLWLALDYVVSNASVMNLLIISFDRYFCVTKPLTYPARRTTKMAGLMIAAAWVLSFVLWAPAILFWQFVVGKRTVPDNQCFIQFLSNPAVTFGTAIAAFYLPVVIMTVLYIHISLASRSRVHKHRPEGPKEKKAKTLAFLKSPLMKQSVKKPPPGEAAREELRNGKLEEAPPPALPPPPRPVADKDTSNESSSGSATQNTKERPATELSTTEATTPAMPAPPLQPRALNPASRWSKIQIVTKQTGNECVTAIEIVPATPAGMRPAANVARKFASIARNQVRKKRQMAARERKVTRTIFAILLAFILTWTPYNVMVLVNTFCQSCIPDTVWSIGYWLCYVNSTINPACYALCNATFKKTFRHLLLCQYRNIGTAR
Assay type: cell-based
Outline: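 CHO-K1 cells were loaded with calcium dye at 37 °C for ~1 h. Fluorescence (ex 470–495/em 515–575 nm) was read for 4 min after test compound at increasing concentrations, then 3.5 min after acetylcholine at an EC20; sometimes a third addition at EC70 followed. The value is the inflection point of a 4-parameter logistic fit.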

Structure (SMILES) | EC50 [nM]
Cc1c(Cl)nc(CO)nc1N1CCC(Oc2ccc3ccn(C)c(=O)c3c2)CC1 [Example 9, 7-((1-(6-chloro-2-(hydroxymethyl)-5-methylpyrimidin-4-yl)piperidin-4-yl)oxy)-2-methylisoquinolin-1(2H)-one] | 2490
Cc1c(Cl)nc(CO)nc1N1CCC(Oc2cccc(C#N)c2)C(F)(F)C1 (stereo not drawn) [Example 23, 3-((1-(6-chloro-2-(hydroxymethyl)-5-methylpyrimidin-4-yl)-3,3-difluoropiperidin-4-yl)oxy)benzonitrile] | 75
Cc1c(Cl)nc(CO)nc1N1CCC(Oc2ccc3c(c2)C(=O)N(C)CC3)CC1 [Example 41, 7-((1-(6-chloro-2-(hydroxymethyl)-5-methylpyrimidin-4-yl)piperidin-4-yl)oxy)-2-methyl-3,4-dihdyroisoquinolin-1(2H)-one] | 322
CSc1ncc(C#N)c(N2CCC(Oc3cccnc3)CC2)n1 [Example 95A, 2-(methylthio)-4-(4-(pyridin-3-yloxy)piperidin-1-yl)pyrimidine-5-carbonitrile] | 4940
Cc1cc(C(=O)NC2CCc3cccnc3C2)nnc1N1CCC(OCC2CC2)CC1 (stereo not drawn) [Example 144, 6-[4-(cyclopropylmethoxy)piperidin-1-yl]-5-methyl-N-(5,6,7,8-tetrahydroquinolin-7-yl)pyridazine-3-carboxamide] | 193
COc1ccc(OC2CCN(c3nc(SC)nc(Cl)c3C)CC2)cn1 [Example 82, 4-chloro-6-(4-((6-methoxypyridin-3-yl)oxy)piperidin-1-yl)-5-methyl-2-(methylthio)pyrimidine] | 385
COc1ccc(OC2CCN(c3nnc(C(=O)N[C@@H]4CCc5cccnc5C4)cc3C)CC2)cn1 [Example 126A, (R)-6-{4-[(6-methoxypyridin-3-yl)oxy]piperidin-1-yl}-5-methyl-N-(5,6,7,8-tetrahydroquinolin-7-yl)pyridazine-3-carboxamide] | 110
Cc1cc(C(=O)NC2C3CC2C3)nnc1N1CCC(Oc2ccc3c(c2)C(=O)N(C)C3)CC1 (stereo not drawn) [Example 157, N-bicyclo[1.1.1]pent-2-yl-5-methyl-6-{4-[(2-methyl-3-oxo-2,3-dihydro-1H-isoindol-5-yl)oxy]piperidin-1-yl}pyridazine-3-carboxamide] | 277
Cc1c(Cl)nc(CO)nc1N1CCC(Oc2ccc3c(c2)OCCN3)CC1 [Example 96, (4-Chloro-6-(4-((3,4-dihydro-2H-benzo[b][1,4]oxazin-7-yl)oxy)piperidin-1-yl)-5-methylpyrimidin-2-yl)methanol] | 37
COC(=O)c1cc(C)c(N2CCC(Oc3ccc(OC)nc3)CC2)nn1 [Example 70, methyl 6-(4-((6-methoxypyridin-3-yl)oxy)piperidin-1-yl)-5-methylpyridazine-3-carboxylate] | 129
CSc1ncc(C)c(N2CCC(Oc3cccnc3)CC2)n1 [Example 20, 5-methyl-2-(methylthio)-4-(4-(pyridin-3-yloxy)piperidin-1-yl)pyrimidine] | 3060
Cc1cc(C(=O)NCc2ccncc2)nnc1N1CCC(Oc2cnn(CC3CC3)c2)CC1 [Example 39, 6-(4-((1-(cyclopropylmethyl)-1H-pyrazol-4-yl)oxy)piperidin-1-yl)-5-methyl-N-(pyridin-4-ylmethyl)pyridazine-3-carboxamide] | 278
Cc1c(Cl)nc(CO)nc1N1CCC(Oc2ccc3nn(C)cc3c2)CC1 [Example 63] | 99
COc1ccc(OC2CCN(c3nc(C)nc(C)c3C)CC2)cn1 [Example 104, 4-(4-((6-methoxypyridin-3-yl)oxy)piperidin-1-yl)-2,5,6,-trimethylpyrimidine] | 91
Cc1c(Cl)nc(CO)nc1N1CCC(Oc2ccc3c(c2)OCCO3)CC1 [Example 92, (4-chloro-6-(4-((2,3-dihydrobenzo[b][1,4]dioxin-6-yl)oxy)piperidin-1-yl)-5-methylpyrimidin-2-yl)methanol] | 29
Cc1nc2ccc(OC3CCN(c4nnc(C(=O)NC5C6CC5C6)cc4C)CC3)cc2o1 (stereo not drawn) [Example 148, N-bicyclo[1.1.1]pent-2-yl-5-methyl-6-{4-[(2-methyl-1,3-benzoxazol-6-yl)oxy]piperidin-1-yl}pyridazine-3-carboxamide] | 221

Now from value to compound:

EC50 [nM] | Structure (SMILES)
97 | CCc1cc(C(=O)NCc2ccncc2)nnc1N1CCC(Oc2ccc(OC)nc2)CC1 [Example 205, 5-Ethyl-6-(4-((6-methoxypyridin-3-yl)oxy)piperidin-1-yl)-N-(pyridin-4-ylmethyl)pyridazine-3-carboxamide]
446 | COc1ccc(OC2CCN(c3nnc(C(=O)NC4CCc5cc(F)ccc5C4)cc3C)CC2)cn1 (stereo not drawn) [Example 168, N-(6-fluoro-1,2,3,4-tetrahydronaphthalen-2-yl)-6-{4-[(6-methoxypyridin-3-yl)oxy]piperidin-1-yl}-5-methylpyridazine-3-carboxamide]
2570 | COC(=O)c1cc(C)c(N2CCC(Oc3ccc4c(c3)COC4)CC2)nc1Cl [Example 267, Methyl 2-chloro-6-(4-((1,3-dihydroisobenzofuran-5-yl)oxy)piperidin-1-yl)-5-methylnicotinate]
134 | CNc1ncnc(N2CCC(Oc3ccc(OC)nc3)CC2)c1C [Example 234, 6-(4-((6-methoxypyridin-3-yl)oxy)piperidin-1-yl)-N,5-dimethylpyrimidin-4-amine]
74 | COc1ccc(OC2CCN(c3nnc(C(=O)NCCc4ccccc4)cc3C)CC2)cn1 [Example 196, 6-{4-[(6-methoxypyridin-3-yl)oxy]piperidin-1-yl}-5-methyl-N-(2-phenylethyl)pyridazine-3-carboxamide]
3060 | COc1ccc(OC2CCN(c3ncnc(N4CC5CC4CO5)c3C)CC2)cn1 (stereo not drawn) [Example 238, 5-(6-(4-((6-methoxypyridin-3-yl)oxy)piperidin-1-yl)-5-methylpyrimidin-4-yl)-2-oxa-5-azabicyclo[2.2.1]heptane]
835 | COc1ccc(OC2CCN(c3nc(C(=O)NC4CNC4)nc(Cl)c3C)CC2)cn1 [Example 215, N-(azetidin-3-yl)-4-chloro-6-(4-((6-methoxypyridin-3-yl)oxy)piperidin-1-yl)-5-methylpyrimidine-2-carboxamide]
1430 | COc1ccc(OC2CCN(c3nc(C(=O)NC(C)(C)c4ccncc4)nc(Cl)c3C)CC2)cn1 [Example 220, 4-chloro-6-(4-((6-methoxypyridin-3-yl)oxy)piperidin-1-yl)-5-methyl-N-(2-(pyridin-4-yl)propan-2-yl)pyrimidine-2-carboxamide]
807 | COc1ccc(OC2CCN(c3ncnc(N4CCc5scnc5C4)c3C)CC2)cn1 [Example 229, 5-(6-(4-((6-methoxypyridin-3-yl)oxy)piperidin-1-yl)-5-methylpyrimidin-4-yl)-4,5,6,7-tetrahydrothiazolo[4,5-c]pyridine]
400 | COc1ccc(OC2CCN(c3nnc(C(=O)NCc4ccc5c(c4)OCO5)cc3C)CC2)cn1 [Example 166, N-(1,3-benzodioxol-5-ylmethyl)-6-{4-[(6-methoxypyridin-3-yl)oxy]piperidin-1-yl}-5-methylpyridazine-3-carboxamide]
724 | COc1ccc(OC2CCN(c3nnc(C(=O)NCc4ccccc4C#N)cc3C)CC2)cn1 [Example 178, N-(2-cyanobenzyl)-6-{4-[(6-methoxypyridin-3-yl)oxy]piperidin-1-yl}-5-methylpyridazine-3-carboxamide]
